Experimental data: publication PMC10739246 (ACS Bio & Med Chem Au, 2023)
Values after ≈ are worked out from the molar mass of the structure shown. “Also recorded” adds a separate entry of the source. Like-named read-outs stand apart in the source and are kept apart here.

What was measured:
E. coli (W3110) = assay: MIC, microdilution, E. coli W3110; assay type: cell-based, Escherichia coli; conditions: for MIC: Gram-negative strain, average of duplicate experiments, read-out: MIC E. coli (W3110); for concentration (MIC against E. coli W3110): Tab. S11, concentrations represent MIC values
[1] = test system: M. tuberculosis (MC26020); assay: microbe, parasite or virus in culture; assay type: cell-based, Mycobacterium tuberculosis; conditions: for MIC: Mycobacterium tuberculosis, read-out: MIC M. tuberculosis (MC26020)
E. coli [2] = assay: microbe, parasite or virus in culture; conditions: Escherichia coli, read-out: MICC (MIC of the test compound alone)
[3] = test system: norfloxacin-resistant clinical isolate of E. coli; assay: MIC, microdilution, norfloxacin-resistant clinical isolate of E. coli; assay type: cell-based, Escherichia coli; conditions: read-out: MIC E. coli (norfloxacin-resistant strain)
S. aureus (CCUG1800T) = assay: MIC, microdilution, S. aureus CCUG1800T; assay type: cell-based, Staphylococcus aureus; conditions: read-out: MIC S. aureus (CCUG1800T)
P. aeruginosa (PAO1) = assay: MIC, microdilution, P. aeruginosa PAO1; assay type: cell-based, Pseudomonas aeruginosa
[4] = test system: K. pneumoniae (ATCC 10031); assay: MIC, K. pneumoniae ATCC 10031; assay type: cell-based, Klebsiella pneumoniae
E. faecalis (ATCC 19433) = assay: MIC, E. faecalis ATCC 19433; assay type: cell-based, Enterococcus faecalis
[5] = test system: S. aureus (ATCC 43300) MRSA; assay: MIC, microdilution, MRSA ATCC 43300; assay type: cell-based, Staphylococcus aureus; conditions: norfloxacin-resistant strain
E. coli [6] = conditions: for FICC (fractional inhibitory concentration of the test compound): MICCcheckerboard/MICC; for Outcome: checkerboard with mupirocin; for FICM (MICMcheckerboard/MICM): mupirocin alone 64 µg/mL; for FICI (fractional inhibitory concentration index): with mupirocin, FICC+FICM
[7] = test system: MurG in B. subtilis TNVS175; assay: MurG localization; assay type: cell-based, Bacillus subtilis; conditions: 1x MIC; 30 min (vancomycin) or 1 h;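 further: normal MurG forms small membrane spots and peptidoglycan inhibition gives large clusters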
MreB in B. subtilis MW10 = assay: MreB mobility assay; assay type: cell-based, Bacillus subtilis; conditions: B. subtilis MW10, 1 h of antibiotic exposure
Method: MreB is an actin homologue that forms filamentous structures along the lateral axis of the cell. It moves along the length of the cells in a spiraling pattern thereby driving lateral peptidoglycan synthesis.[36],[37] MreB mobility is sensitive to inhibition of peptidoglycan synthesis and so far, every cell wall synthesis inhibitor we tested abolished MreB movement (see Figure S70 for examples).
Expression of msfGFP-MreB was induced with 0.3% xylose. Pictures were taken after 1 h of antibiotic exposure. Two images of the same field of view were recorded 30 s apart and overlaid in ImageJ to visualize MreB mobility. A perfect overlap (yellow) indicates stalled MreB movement, while distinct red and green foci are indicative of MreB mobility. Scale bar 2 μm.
Fig. S70: MreB motility in B. subtilis MW10 after treatment with different cell wall synthesis inhibitors. Expression of GFP-MreB was induced with 0.3% xylose. Cells were treated with 1x […]
Two images of the same field of view were recorded 30 sec apart and overlaid in ImageJ to visualize MreB mobility. A perfect overlap (yellow) indicates stalled MreB movement while distinct red and green spots are indicative of MreB mobility. Scale bar 2 µm.

[8] = test system: PbpB in B. subtilis EKB46; assay: PbpB localization; conditions: 1x MIC; 30 min (vancomycin) or 1 h
[9] = test system: cell wall biosynthesis in B. subtilis DSM402; assay: Summary of cell wall synthesis experiments; assay type: cell-based, Bacillus subtilis
[10] = test system: PonA in B. subtilis TNVS45; assay: PonA localization; conditions: 1x MIC; 30 min (vancomycin) or 1 h
B. subtilis DSM402 [11] = assay: Bacterial cytological profiling (BCP) in B. subtilis DSM402; assay type: cell-based, Bacillus subtilis; conditions: for DAPI / phase contrast / FM4-64: 1x MIC, 1 h; for DAPI: DNA condensation; for phase contrast: indicates cell lysis; for FM4-64: membrane stain; for gyrase inhibition / membrane damage: interpretation of BCP in B. subtilis
B. subtilis DSM402 [12] = assay: Peptidoglycan integrity assay (acetic acid/methanol fixation); conditions: 1x MIC; 30 min (cell wall inhibitors) or 60 min
B. subtilis DSM402 [13] = conditions: for concentration (MIC against B. subtilis DSM402): Tab. S13, concentrations represent MIC values; for μM (concentration used, 1x MIC): Table 2, cells treated with 1x MIC
E. coli BCB472 = assay: GlpT localization (inner membrane) in E. coli BCB472; conditions: 1x MIC, 1 h; GFP-tagged membrane protein
E. coli W3110 = assay: Bacterial cytological profiling (BCP) in E. coli W3110; assay type: cell-based, Escherichia coli; conditions: for DAPI / phase contrast / FM4-64: 1x MIC, 1 h; for DAPI: DNA condensation; for phase contrast: indicates cell lysis; for FM4-64: membrane stain; for gyrase inhibition / membrane damage: interpretation of BCP in E. coli
[14] = test system: MraY in B. subtilis TNVS284; assay: MraY localization; conditions: 1x MIC; 30 min (vancomycin) or 1 h
[15] = Klebsiella pneumoniae, ATCC10031
[16] = Enterococcus faecalis, ATCC19433

SMILES: CCn1cc(C(=O)O)c(=O)c2cc(F)c(N3CCN(C(=O)CN4CCCCC4)CC3)cc21 [7a]
- MIC (E. coli (W3110); Escherichia coli): 36 µM (≈ 16 µg/mL)
- MIC [1]: 72 µM (≈ 32 µg/mL)
- MIC (E. coli [2]): 16 µg/mL
- MIC ([3]; Escherichia coli): > 1150 µM
- MIC (S. aureus (CCUG1800T); Staphylococcus aureus): 8.99 µM (≈ 4 µg/mL)
- MIC (P. aeruginosa (PAO1); Pseudomonas aeruginosa, PAO1): > 1150 µM
- MIC [4, 15]: 144 µM (≈ 64 µg/mL)
- MIC (E. faecalis (ATCC 19433); [16]): 4.49 µM (≈ 2 µg/mL)
- MIC ([5]; Staphylococcus aureus): 576 µM (≈ 256 µg/mL)
- FICC (fractional inhibitory concentration of the test compound) (E. coli [6]): 0.252
- Outcome (E. coli [6]): additive (>0.5 to ≤4.0 as additive (no interaction))
- FICM (MICMcheckerboard/MICM) (E. coli [6]): 0.75
- FICI (fractional inhibitory concentration index) (E. coli [6]): 1.002

SMILES: CCn1cc(C(=O)O)c(=O)c2cc(F)c(N3CCN(C(=O)CN4CCOCC4)CC3)cc21 [7b]
- MIC (E. coli (W3110); Escherichia coli): 71.7 µM (≈ 32 µg/mL)
- MIC [1]: 1.67 µM (≈ 0.746 µg/mL)
- MIC (E. coli [2]): 32 µg/mL
- MIC ([3]; Escherichia coli): 143 µM (≈ 64 µg/mL)
- MIC (S. aureus (CCUG1800T); Staphylococcus aureus): 4.47 µM (≈ 2 µg/mL)
- MIC (P. aeruginosa (PAO1); Pseudomonas aeruginosa, PAO1): 860 µM (≈ 384 µg/mL)
- MIC [4, 15]: > 1150 µM
- MIC (E. faecalis (ATCC 19433); [16]): 8.95 µM (≈ 4 µg/mL)
- MIC ([5]; Staphylococcus aureus): 287 µM (≈ 128 µg/mL)
- FICC (fractional inhibitory concentration of the test compound) (E. coli [6]): 0.5
- Outcome (E. coli [6]): additive (>0.5 to ≤4.0 as additive (no interaction))
- FICM (MICMcheckerboard/MICM) (E. coli [6]): 0.0313
- FICI (fractional inhibitory concentration index) (E. coli [6]): 0.5313

SMILES: CCn1cc(C(=O)O)c(=O)c2cc(F)c(N3CCN(CN4C(=O)C(=O)c5cc(F)ccc54)CC3)cc21 [20a]
- protein localization MurG [7]: distinct MurG clusters all over the cells; also recorded: patchy
- MIC (E. coli (W3110)): 3.02 µM (≈ 1.5 µg/mL)
- concentration (MIC against E. coli W3110) (E. coli (W3110)): 3.02 µM
- MreB mobility (MreB in B. subtilis MW10): much smaller clusters and more clusters per cell; also recorded: mobile with static foci
- protein localization PbpB [8]: neither compound affected the localization; also recorded: smooth
- CWB inhibited? [9]: yes ^b
- MIC M. tuberculosis (MC26020) [1]: 64.45 µM (≈ 32 µg/mL)
- protein localization PonA [10]: neither compound affected the localization; also recorded: septal
- DAPI (B. subtilis DSM402 [11]): condensed
- phase contrast (B. subtilis DSM402 [11]): dark
- FM4-64 (B. subtilis DSM402 [11]): patchy
- gyrase inhibition (B. subtilis DSM402 [11]): yes
- membrane damage (B. subtilis DSM402 [11]): yes
- MIC ([3]; norfloxacin-resistant clinical isolate): 16.11 µM (≈ 8 µg/mL)
- MIC (S. aureus (CCUG1800T)): 8.05 µM (≈ 4 µg/mL)
- PG integrity (B. subtilis DSM402 [12]): came close to the cutoff value; also recorded: intact
- MIC (P. aeruginosa (PAO1)): 17.12 µM (≈ 8.5 µg/mL)
- concentration (MIC against B. subtilis DSM402) (B. subtilis DSM402 [13]): 16.11 µM
- μM (concentration used, 1x MIC) (B. subtilis DSM402 [13]): 16.11 µM
- MIC [4]: 8.05 µM (≈ 4 µg/mL)
- MIC (E. faecalis (ATCC 19433)): 3.02 µM (≈ 1.5 µg/mL)
- MIC [5]: >1031.3 µM
- GlpT (E. coli BCB472): smooth
- DAPI (E. coli W3110): condensed
- phase contrast (E. coli W3110): dark
- FM4-64 (E. coli W3110): smooth
- gyrase inhibition (E. coli W3110): yes
- membrane damage (E. coli W3110): no
- protein localization MraY [14]: neither compound affected the localization; also recorded: rough

SMILES: CC(C)(N)[C@H](NC(=O)c1ccc(C#CC#C[C@@H]2C[C@H]2CO)cc1)C(=O)NO [ACHN-975, reference compound]
- MIC (E. coli [2]): 0.5 µg/mL
- FICM (MICMcheckerboard/MICM) (E. coli [6]): 0.0469
- FICI (fractional inhibitory concentration index) (E. coli [6]): 0.2969

SMILES: C/C(=C\C(=O)OCCCCCCCCC(=O)O)C[C@@H]1OC[C@H](C[C@@H]2O[C@H]2[C@@H](C)[C@H](C)O)[C@@H](O)[C@H]1O [Mup, mupirocin]
- MIC (E. coli [2]): 64 µg/mL

SMILES: CN[C@H](CC(C)C)C(=O)N[C@H]1C(=O)N[C@@H](CC(N)=O)C(=O)N[C@H]2C(=O)N[C@H]3C(=O)N[C@H](C(=O)N[C@H](C(=O)O)c4cc(O)cc(O)c4-c4cc3ccc4O)[C@H](O)c3ccc(c(Cl)c3)Oc3cc2cc(c3O[C@@H]2O[C@H](CO)[C@@H](O)[C@H](O)[C@H]2O[C@H]2C[C@](C)(N)[C@H](O)[C@H](C)O2)Oc2ccc(cc2Cl)[C@H]1O [Van, vancomycin, reference compound]
- protein localization MurG [7]: patchy/dispersed
- MreB mobility (MreB in B. subtilis MW10): static with foci
- protein localization PbpB [8]: smooth
- CWB inhibited? [9]: yes
- protein localization PonA [10]: septal
- PG integrity (B. subtilis DSM402 [12]): compromised
- μM (concentration used, 1x MIC) (B. subtilis DSM402 [13]): 0.68 µM
- protein localization MraY [14]: rough

SMILES: CCn1cc(C(=O)O)c(=O)c2cc(F)c(N3CCN(C(=O)CCl)CC3)cc21 [compound 2]
- MIC (E. coli (W3110)): 6.31 µM (≈ 2.5 µg/mL)
- concentration (MIC against E. coli W3110) (E. coli (W3110)): 6.31 µM
- CWB inhibited? [9]: no
- MIC M. tuberculosis (MC26020) [1]: >1293.54 µM
- DAPI (B. subtilis DSM402 [11]): condensed
- phase contrast (B. subtilis DSM402 [11]): dark
- FM4-64 (B. subtilis DSM402 [11]): smooth
- gyrase inhibition (B. subtilis DSM402 [11]): yes
- membrane damage (B. subtilis DSM402 [11]): no
- MIC [3]: >1293.54 µM
- MIC (S. aureus (CCUG1800T)): 2.52 µM (≈ 0.997 µg/mL)
- PG integrity (B. subtilis DSM402 [12]): came close to the cutoff value; also recorded: intact
- MIC (P. aeruginosa (PAO1)): 192 µM (≈ 76 µg/mL)
- concentration (MIC against B. subtilis DSM402) (B. subtilis DSM402 [13]): 1.89 µM
- μM (concentration used, 1x MIC) (B. subtilis DSM402 [13]): 1.89 µM
- MIC [4]: 121.27 µM (≈ 48 µg/mL)
- MIC (E. faecalis (ATCC 19433)): 6.31 µM (≈ 2.5 µg/mL)
- MIC [5]: 161.69 µM (≈ 64 µg/mL)
- FICC (fractional inhibitory concentration of the test compound) (E. coli [6]): 1.25
- MICC (MIC of the test compound alone) (E. coli [6]; average of at least two replicates): 2 µg/mL
- Outcome (E. coli [6]): additive (>0.5 to ≤4.0 as additive (no interaction))
- MICCcheckerboard (MIC of the test compound in checkerboard assay) (E. coli [6]; combined with mupirocin): 2.5 µg/mL
- FICM (MICMcheckerboard/MICM) (E. coli [6]): 0.2656
- MICMcheckerboard (MIC of mupirocin in checkerboard assay) (E. coli [6]; mupirocin combined with the compound of the line): 7.8 µg/mL
- FICI (fractional inhibitory concentration index) (E. coli [6]): 1.5156
- GlpT (E. coli BCB472): smooth
- DAPI (E. coli W3110): condensed
- phase contrast (E. coli W3110): dark
- FM4-64 (E. coli W3110): smooth
- gyrase inhibition (E. coli W3110): yes
- membrane damage (E. coli W3110): no
